Patent publication US5643604A, “Parenteral dosage form” (Aplicaciones Farmaceuticas S.A. De C.V., priority 1990, dated 1997)

What was measured:
[1] = Comparative infrared spectrophotometry (FT-IR, with HPLC diode-array) before and after formation of microspheres; format: physicochemical; details: after the formation of microspheres; potassium bromide dispersion
Excerpt: (§1) It is necessary to check that no chemical damage of the substances occurs during the spray-freezing process, which could modify their therapeutic properties. The starting materials (crystals) and the microspheres obtained by spray-freezing are compared by UV and IR spectrophotometry. UV spectras shall always be superimposable and IR spectras shall correspond. If differences in infrared spectras appear, it shall be checked if they are due to a polymorphism phenomenon, by means of an HPLC setup with diode-array detection. Differential thermal analysis is also used, not only to check the melting points, but also to determine if endothermic or exothermic transitions occur, due either to structure modifications or to a polymorphism, which may influence the microsphere information process, or due to heat-induced chemical reactions.
Equipment used in infrared spectrophotometry: Nicolet 205 FT-IR. Dispersion medium: potassium bromide. Chromatography: HPLC device with photo diode-array detector, model Waters 990 and Nec powermate 2 workstation.

[2] = Comparative UV spectrophotometric analysis before and after formation of microspheres; format: physicochemical; details: starting materials (crystals) vs microspheres obtained by spray-freezing; ethanol for 17-beta-estradiol and cholesterol, 0.1N HCl for the others
Excerpt: as §1
Equipment used in ultraviolet spectrography: Hewlett Packard model 8452A with photodiode arrangement and quartz cell with a beam of 0.1 cm.

[3] = Differential thermal analysis (DSC); details: Shimadzu DSC 50 calorimeter
Excerpt: as §1
Thermal analysis: Shimadzu DSC 50 calorimeter and CR4A workstation.

[4] = general statement, no test described; cited from earlier work

SMILES | chemical modification by infrared spectrophotometry [1] | chemical modification by UV spectrophotometry [2] | degradation on differential thermograms [3] | solubility in water [4]
C[C@]12CC[C@@H]3c4ccc(O)cc4CC[C@H]3[C@@H]1CC[C@@H]2O [17-beta-estradiol] | no modification | no trace of modification | no degradation | 
CCCC[N+]1(C)C2CC(OC(=O)C(CO)c3ccccc3)CC1C1OC12 (centres unmarked) [butylhioscine bromide] | produces chemical modifications | no trace of modification |  | 
Cn1c(=O)c2c(ncn2C)n(C)c1=O [caffeine] |  | no trace of modification | no degradation | 
CC(C)CCC[C@@H](C)[C@H]1CC[C@H]2[C@@H]3CC=C4C[C@@H](O)CC[C@]4(C)[C@H]3CC[C@]12C [cholesterol] | no modification | no trace of modification |  | 
CN1C(=O)CN=C(c2ccccc2)c2cc(Cl)ccc21 [diazepam] |  |  | no degradation | 
CCN(CC)CCNC(=O)c1cc(Cl)c(N)cc1OC [methoclopramide] |  |  |  | freely soluble in water
